Reference: patent US11066414B2, “Cot modulators and methods of use thereof” (Gilead Sciences, Inc., priority 2015, dated 2021)
pEC50, pIC50: −log10 of the molar value. Like-named read-outs stand apart in the source and are kept apart here.

Legend:
TNFα = test: Cot Monocyte TNFα Cell Based Assay
Human Cot = Human Cot (Homo sapiens (Human), UniProt P41279); test: High Throughput Cot Biochemical Assay; conditions: Cot HTRF (TR-FRET KinEASE) biochemical assay, 400 μM ATP
[1] = Homo sapiens, Monocyte, read-out: EC50 TNF, LPS-stimulated human monocytes, TNFα TR-FRET
[2] = read-out: EC50 TNF, LPS-stimulated human monocytes, TNFα TR-FRET

Chain of Human Cot (P41279 30-397): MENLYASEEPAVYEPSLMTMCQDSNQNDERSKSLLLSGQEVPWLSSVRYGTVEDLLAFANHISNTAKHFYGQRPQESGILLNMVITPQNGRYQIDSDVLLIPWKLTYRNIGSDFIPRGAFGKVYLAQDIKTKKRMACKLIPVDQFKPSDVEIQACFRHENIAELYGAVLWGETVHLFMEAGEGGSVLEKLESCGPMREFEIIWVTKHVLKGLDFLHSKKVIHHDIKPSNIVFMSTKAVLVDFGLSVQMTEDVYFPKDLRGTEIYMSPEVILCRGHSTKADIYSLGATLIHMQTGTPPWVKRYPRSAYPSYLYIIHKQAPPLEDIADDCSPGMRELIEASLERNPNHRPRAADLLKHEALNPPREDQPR

pEC50 (TNFα; [1])	pIC50 (Human Cot; IC50 HTRF)	pEC50 (TNFα; [2])	pIC50 (Human Cot; read-out: IC50 HTRF)	Compound
6.69	8.10			Cc1nc(F)ccc1[C@H](Nc1cc(C#N)c2ncc(C#N)c(NCC3(C(F)(F)F)CCC3)c2c1)c1cn(C2(C(F)F)CC2)nn1 [Example 831, (S)-6-(((1-(1-(difluoromethyl)-cyclopropyl)-1H-1,2,3-triazol-4-yl)(6-fluoro-2-methylpyridin-3-yl)methyl)amino)-4-(((1-(trifluoromethyl)cyclobutyl)methyl)-amino)quinoline-3,8-dicarbonitrile]
		7.36	8.70	Cc1nc(F)ccc1[C@H](Nc1cc(C#N)c2ncc(C#N)c(NCC(C)(C)C(F)(F)F)c2c1)c1cn(C2(C(F)F)CC2)nn1 [Example 832, (S)-6-(((1-(l-(difluoromethyl)-cyclopropyl)-1H-1,2,3-triazol-4-yl)(6-fluoro-2-methylpyridin-3-yl)methyl)amino)-4-((3,3,3-trifluoro-2,2-dimethylpropyl)amino)quinoline-3,8-dicarbonitrile]
7.66	8.70			Cc1nc(F)ccc1[C@H](Nc1cc(C#N)c2ncc(C#N)c(NCC(C)(C)C(F)(F)F)c2c1)c1cn(C23CC(C2)C3)nn1 [Example 833, (S)-6-(((1-(bicyclo[1.1.1]pentan-1-yl)-1H-1,2,3-triazol-4-yl)(6-fluoro-2-methylpyridin-3-yl)methyl)amino)-4-((3,3,3-trifluoro-2,2-dimethylpropyl)amino)quinoline-3,8-dicarbonitrile]
7.28	8.40			Cc1nc(F)ccc1[C@H](Nc1cc(C#N)c2ncc(C#N)c(NCC(C)(C)C)c2c1)c1cn(CC(C)(F)F)nn1 [Example 836, (S)-6-(((1-(2,2-difluoropropyl)-1H-1,2,3-triazol-4-yl)(6-fluoro-2-methylpyridin-3-yl)methyl)amino)-4-(neopentylamino)quinoline-3,8-dicarbonitrile]
6.92	8.15			CCC(F)(F)Cn1cc([C@@H](Nc2cc(C#N)c3ncc(C#N)c(NCC(C)(C)C)c3c2)c2ccc(F)nc2C)nn1 [Example 837, (S)-6-(((1-(2,2-difluorobutyl)-1H-1,2,3-triazol-4-yl)(6-fluoro-2-methylpyridin-3-yl)methyl)amino)-4-(neopentylamino)quinoline-3,8-dicarbonitrile]
7.08	8.52			Cn1ccc2c([C@H](Nc3cc(C#N)c4ncc(C#N)c(NCC(C)(C)C(F)(F)F)c4c3)c3cn(C4(C(F)F)CC4)nn3)cccc2c1=O [Example 838, (S)-6-(((1-(1-(difluoromethyl)-cyclopropyl)-1H-1,2,3-triazol-4-yl)(2-methyl-1-oxo-1,2-dihydroisoquinolin-5-yl)methyl)amino)-4-((3,3,3-trifluoro-2,2-dimethylpropyl)-amino)quinoline-3,8-dicarbonitrile]
7.03	8.22			Cc1nc(F)ccc1[C@H](Nc1cc(C#N)c2ncc(C#N)c(NCC(C)(C)C)c2c1)c1cn(CC2(C(F)(F)F)CC2)nn1 [Example 839, (S)-6-(((6-fluoro-2-methylpyridin-3-yl)(1-((1-(trifluoromethyl)cyclo-propyl)methyl)-1H-1,2,3-triazol-4-yl)methyl)amino)-4-(neopentylamino)quinoline-3,8-dicarbonitrile]
		7.39	8.70	Cc1nc(F)ccc1[C@H](Nc1cc(C#N)c2ncc(C#N)c(NCC(C)(C)C(F)(F)F)c2c1)c1cn(C2(C(F)F)CC2)nn1 [Example 841]
		6.25	8.52	CC(C)(CNc1c(C#N)cnc2c(C#N)cc(N[C@H](c3cn(C4(C(F)F)CC4)nn3)c3cccc4c(=O)[nH]ccc34)cc12)C(F)(F)F [Example 842]
6.98	8.40			Cc1nc(F)ccc1[C@H](Nc1cc(C#N)c2ncc(C#N)c(NCC(C)(C)C(F)(F)F)c2c1)c1cn(C2(C(F)(F)F)CC2)nn1 [Example 843, (S)-6-(((6-fluoro-2-methylpyridin-3-yl)(1-(1-(trifluoromethyl)cyclopropyl)-1H-1,2,3-triazol-4-yl)methyl)amino)-4-((3,3,3-trifluoro-2,2-dimethylpropyl)amino)-quinoline-3,8-dicarbonitrile]
6.00	7.70			Cc1nc(F)ccc1[C@H](Nc1cc(C#N)c2ncc(C#N)c(NCC3C(C)(C)C3(C)C)c2c1)c1cn(C2(C(F)F)CC2)nn1 [Example 845, (S)-6-(((1-(1-(difluoromethyl)-cyclopropyl)-1H-1,2,3-triazol-4-yl)(6-fluoro-2-methylpyridin-3-yl)methyl)amino)-4-(((2,2,3,3-tetramethylcyclopropyl)methyl)-amino)quinoline-3,8-dicarbonitrile]
7.77	8.70			Cc1nc(F)ccc1[C@H](Nc1cc(C#N)c2ncc(C#N)c(NCC(C)(C)C(F)(F)F)c2c1)c1cn(C2(C)CC2)nn1 [Example 846, (S)-6-(((6-fluoro-2-methylpyridin-3-yl)(1-(1-methylcyclopropyl)-1H-1,2,3-triazol-4-yl)methyl)amino)-4-((3,3,3-trifluoro-2,2-dimethylpropyl)amino)quinoline-3,8-dicarbonitrile]
6.53	7.51			Cn1ccc2c([C@H](Nc3cc(C#N)c4ncc(C#N)c(NCC(C)(C)C)c4c3)c3cn(C4(C(F)F)CC4)nn3)cccc21 [Example 847, (S)-6-(((1-(1-(difluoromethyl)-cyclopropyl)-1H-1,2,3-triazol-4-yl)(1-methyl-1H-indol-4-yl)methyl)amino)-4-(neopentylamino)quinoline-3,8-dicarbonitrile]
6.61	7.51			Cc1nc(F)ccc1[C@H](Nc1cc(C#N)c2ncc(C#N)c(NCC34CC(C3)C4)c2c1)c1cn(C2(C(F)(F)F)CC2)nn1 [Example 848, (S)-4-((bicyclo[1.1.1]pentan-1-ylmethyl)amino)-6-(((6-fluoro-2-methylpyridin-3-yl)(1-(1-(trifluoromethyl)cyclopropyl)-1H-1,2,3-triazol-4-yl)methyl)amino)quinoline-3,8-dicarbonitrile]
6.58	7.80			Cc1nc(F)ccc1[C@H](Nc1cc(C#N)c2ncc(C#N)c(NCC34CC(C3)C4)c2c1)c1cn(C2(C(F)F)CC2)nn1 [Example 849, (S)-4-((bicyclo[1.1.1]pentan-1-ylmethyl)amino)-6-(((1-(1-(difluoromethyl)-cyclopropyl)-1H-1,2,3-triazol-4-yl)(6-fluoro-2-methylpyridin-3-yl)methyl)amino)quinoline-3,8-dicarbonitrile]
7.19	8.22			Cc1nc(F)ccc1[C@H](Nc1cc(C#N)c2ncc(C#N)c(NCC(C)(C)C)c2c1)c1cn(C(C)(C)C2CC2)nn1 [Example 850, (S)-6-(((1-{2-cyclopropylpropan-2-yl)-1H-1,2,3-triazol-4-yl)(6-fluoro-2-methylpyridin-3-yl)methyl)amino)-4-(neopentylamino)quinoline-3,8-dicarbonitrile]
7.68	8.52			Cc1nc(F)ccc1[C@H](Nc1cc(C#N)c2ncc(C#N)c(NCC(C)(C)C)c2c1)c1cn(C2(C(C)C)CC2)nn1 [Example 851, (S)-6-(((6-fluoro-2-methylpyridin-3-yl)(1-(1-isopropylcyclopropyl)-1H-1,2,3-triazol-4-yl)methyl)amino)-4-(neopentylamino)quinoline-3,8-dicarbonitrile]
